Measurements taken from PMC10692721, “Drug discovery for heart failure targeting myosin-binding protein C” (The Journal of Biological Chemistry, 2023).
Structures can show the parent of a compound that is named as a salt.

Columns and labels:
[1] = tested on: FMAL-actin plus TMR-cC0-C2; assay: Selleck library HTS, 473 nm excitation (FLT of FMAL-actin with TMR-cC0-C2, FLT-FRET); format: binding, human; conditions: for 473-nm Δτ, Repeat 1 / 473-nm Δτ, Repeat 2: initial screen, 30 μM compound; for 473-nm z-score (based on avg Δτ): robust z-score, hit threshold ±4, 30 μM compound
Experimental: (§1) Fluorescence lifetime (FLT) measurements were acquired using a high-throughput FLT plate reader (Fluorescence Innovations, Inc) ([14], [27]), provided by Photonic Pharma LLC. […] The observed waveforms were analyzed as described previously ([15], [28]).
(§2) In total, 50 nl of each solution was dispensed in DMSO using an automated Echo 550 acoustic liquid dispenser (Labcyte). Compounds were formatted into the assay plates, at a final concentration of 30 μM, with the first two and second to last columns loaded with DMSO only (compound-free controls). In the final column, 30 μM of suramin was loaded as a positive control (tool compound). These assay plates were then heat-sealed using a PlateLoc Thermal Microplate Sealer (Agilent Technologies) and stored at −20 °C. Before screening, compound plates were equilibrated to room temperature (∼25 °C). […] Plates were incubated at room temperature for 60 min before recording the data with the fluorescence lifetime plate reader.
After fitting the waveforms with a single exponential decay to quantify donor FLT, the change in FLT (Δτ) was computed by performing a moving median subtraction in the order the plate was scanned with a window size of half a plate row […]. The reasons for this are twofold. Firstly, plate gradients are often observed due to the heating of the digitizer during acquisition.
To account for the necessity to correct for plate gradients in the computation of E, the median τDMSO prior to the application of the moving median correction was added to each well’s Δτ value to recover a rescaled value of τ.

[2] = tested on: PKA-phosphorylated TMR-cC0-C2 (cC0-C2#P); assay: FLT-TMR concentration-response assay, PKA-phosphorylated cC0-C2; format: binding, human; conditions: 60 μM compound
Experimental: (§3) Compounds identified as initial hits were further examined to determine the concentration–response curves for seven conditions ([1]): FMAL-actin alone identified actin-binding compounds that alter the FLT of FMAL-actin ([2]).
as §1
(§4) The primary hits were dissolved in DMSO to make a 10 mM stock solution, which was serially diluted in 96-well mother plates. Hits were screened at eight concentrations (0.5–100 μM). […] Compounds (1 μl) were transferred from the mother plates into 384-well plates using a Mosquito HV liquid handler (TTP Labtech Ltd, Hertfordshire, UK). The same procedure of dispensing as for the pilot screening was applied in the concentration-response assays. Concentration dependence of the FLT-FRET (E/EDMSO) or FLT-TMR (Δτ) change data was fit to a Hill equation only under certain conditions to help guide the eye (Fig. 4).

[3] = tested on: TMR-cC0-C2 (C0-C2 fragment of human cMyBP-C); assay: FLT-TMR concentration-response assay (FLT of TMR on cC0-C2, no actin); format: binding; conditions: for cC0-C2/cC0-C2#P (ratio of FLT changes) / cC0-C2 FLT change (% change from DMSO, FLT of TMR-MyBP-C): 60 μM compound
Experimental: as §3, §1, §4

[4] = tested on: TMR-fC1-C2 (C1-C2 of fast skeletal MyBP-C); assay: FLT-TMR concentration-response assay, fC1-C2; format: binding; conditions: 60 μM compound
Experimental: as §3, §1, §4

TMR-cC0-C2 = assay: Selleck library HTS, 532 nm excitation (FLT of TMR-cC0-C2 in presence of FMAL-actin); format: binding, human; conditions: for 532-nm Δτ, Repeat 1 / 532-nm Δτ, Repeat 2: initial screen, 30 μM compound; for 532-nm z-score (based on avg Δτ): robust z-score, hit threshold ±4, 30 μM compound
Experimental: as §1, §2
Hits that exceeded the z-score hit criteria in the donor-only screen were excluded from consideration. To remove compounds with confounding fluorescence properties, a similarity index (SI, specifically the cosine distance, Equation 5) was computed using data from the SUPR instrument by comparing a region (500–540 nm) of the donor-only spectrum (I^(a)) for each well to that of the plate-wide average DMSO spectrum (I^(b)) in the same wavelength band ([29]). Compounds that exceeded an SI robust z-score of 4 were deemed likely fluorescent compounds and removed from consideration.(5) SI=1−∑Ii(a).Ii(b)/∑Ii(a).Ii(a)∑Ii(b).Ii(b)

[5] = listed as Erlotinib HCl (OSI-744)

Structure (SMILES)	473-nm Δτ, Repeat 1 [1, 5] [ns]	473-nm Δτ, Repeat 2 [1, 5] [ns]	473-nm z-score (based on avg Δτ) [1, 5]	cC0-C2#P FLT change (% change from DMSO, FLT of TMR-MyBP-C) [2] [%]	cC0-C2/cC0-C2#P (ratio of FLT changes) [3]	cC0-C2 FLT change (% change from DMSO, FLT of TMR-MyBP-C) [3] [%]	cC0-C2/fC1-C2 (ratio of FLT changes) [4]	fC1-C2 FLT change (% change from DMSO, FLT of TMR-MyBP-C) [4] [%]	532-nm Δτ, Repeat 1 (TMR-cC0-C2; [5]) [ns]	532-nm Δτ, Repeat 2 (TMR-cC0-C2; [5]) [ns]	532-nm z-score (based on avg Δτ) (TMR-cC0-C2; [5])	473-nm Δτ, Repeat 1 [1] [ns]	473-nm Δτ, Repeat 2 [1] [ns]	473-nm z-score (based on avg Δτ) [1]	532-nm Δτ, Repeat 1 (TMR-cC0-C2) [ns]	532-nm Δτ, Repeat 2 (TMR-cC0-C2) [ns]	532-nm z-score (based on avg Δτ) (TMR-cC0-C2)	difference in effect on TMR FLT between unphosphorylated and phosphorylated TMR-cC0-C2 ([3]; from Table 3) [fold]
C#Cc1cccc(Nc2ncnc3cc(OCCOC)c(OCCOC)cc23)c1 [Erlotinib HCl]	-0.040	-0.010	-1.36	13.9	0.8	11.8	1.1	11.1	0.138	0.020	4.88	–	–	–	–	–	–	–
Cc1nc(-c2ccc(OCC(C)C)c(C#N)c2)sc1C(=O)O [Febuxostat]	–	–	–	12.1	0.8	9.6	0.7	14.6	–	–	–	0.070	0.043	3.18	0.129	0.132	8.01	–
CCc1c(Cl)c(O)c(Cl)c(O)c1C(=O)O[C@H]1[C@H](O)[C@H](OC)[C@H](OC/C2=C\C=C\C[C@H](O)/C(C)=C/[C@H](CC)[C@@H](O[C@@H]3OC(C)(C)[C@@H](OC(=O)C(C)C)[C@H](O)[C@@H]3O)/C(C)=C/C(C)=C/C[C@@H]([C@@H](C)O)OC2=O)O[C@@H]1C [Fidaxomicin]	–	–	–	−0.5	10.4	−5.2	1.2	−4.3	–	–	–	0.057	0.084	3.98	-0.001	-0.028	-0.86	10.4
CC1(C)CC[C@]2(C(=O)O)CC[C@]3(C)C(=CC[C@@H]4[C@@]5(C)CC[C@H](O)[C@@](C)(CO)[C@@H]5CC[C@]43C)[C@@H]2C1 [Hederagenin]	–	–	–	3.6	0.7	2.5	1.1	2.3	–	–	–	0.083	0.060	4.06	-0.038	-0.038	-2.29	–
Cc1cn(-c2cc(NC(=O)c3ccc(C)c(Nc4nccc(-c5cccnc5)n4)c3)cc(C(F)(F)F)c2)cn1.Cl [Nilotinib hydrochloride]	–	–	–	14.1	0.7	10.1	0.6	15.6	–	–	–	-0.063	-0.031	-2.59	0.121	0.105	6.94	–
Cc1cnc(C(=O)N[C@H]2CCCCC/C=C\[C@@H]3C[C@@]3(C(=O)NS(=O)(=O)C3CC3)NC(=O)[C@@H]3C[C@@H](Oc4nc5ccccc5c5ccccc45)CN3C2=O)cn1 [Paritaprevir (ABT-450), Paritaprevir]	–	–	–	20.3	1.2	23.8	2.2	11.0	–	–	–	0.115	0.058	4.85	0.220	0.254	14.52	–
O=C(O)[C@H]1O[C@@H](Oc2cc3oc(-c4ccc(O)cc4)cc(=O)c3c(O)c2O)[C@H](O)[C@@H](O)[C@@H]1O [Scutellarin]	–	–	–	−8.7	1.0	−9.1	1.0	−9.5	–	–	–	0.142	0.076	6.15	-0.111	-0.145	-7.79	–
CC1(C)CCC(C)(C)c2cc(NC(=O)c3ccc(C(=O)O)cc3)ccc21 [Tamibarotene]	–	–	–	7.2	0.7	5.2	0.9	5.9	–	–	–	0.075	0.067	4.00	0.075	0.106	5.55	–
O=C(Nc1ccc(Cl)cc1)Nc1ccc(Cl)c(Cl)c1 [Triclocarban]	–	–	–	18.2	0.6	11.6	0.5	22.2	–	–	–	-0.128	-0.042	-4.72	0.374	0.415	24.12	–
